From ChEMBL document CHEMBL1134704, “Design, synthesis, and SAR of amino acid derivatives as factor Xa inhibitors” (Bioorg Med Chem Lett, 2001) come the findings set out here.

The target of data set [1] is T1, Coagulation factor X (Homo sapiens, UniProt P00742). Kind of data set: Inhibitory activity against Coagulation factor X was determined.
For the next data set, the target named is Prothrombin (Homo sapiens, UniProt P00734). Kind of data set: In vitro inhibition of human thrombin.
For data set [2], the target named is T1, Coagulation factor X. Briefly: In vitro inhibition of human coagulation factor Xa.
In the next data set the target is Serine protease 1 (Homo sapiens, UniProt P07477). Briefly: In vitro inhibition of human trypsin.
Serine protease 1, sequence (P07477 whole entry): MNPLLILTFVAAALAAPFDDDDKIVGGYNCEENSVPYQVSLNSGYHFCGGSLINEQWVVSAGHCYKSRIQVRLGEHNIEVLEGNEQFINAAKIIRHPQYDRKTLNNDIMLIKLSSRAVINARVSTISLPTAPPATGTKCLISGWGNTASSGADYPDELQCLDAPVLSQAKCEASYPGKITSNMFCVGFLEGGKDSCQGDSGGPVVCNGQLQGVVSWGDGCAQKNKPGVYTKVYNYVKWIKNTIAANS
The nature of data set [3]: Oral bioavailability in rat. The following applies: in vivo. In kind it is ADME, organism-based.
For data set [4], the target named is Vitamin K-dependent protein C (Homo sapiens, UniProt P04070). Kind of data set: Inhibitory activity against activated protein C (APC).
Vitamin K-dependent protein C, sequence (P04070 43-197 limits assumed): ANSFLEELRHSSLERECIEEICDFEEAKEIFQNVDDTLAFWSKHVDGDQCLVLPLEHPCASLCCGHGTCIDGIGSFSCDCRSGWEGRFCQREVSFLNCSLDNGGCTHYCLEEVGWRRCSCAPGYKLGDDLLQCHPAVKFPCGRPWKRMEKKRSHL
Vitamin K-dependent protein C, sequence (P04070 212-461 limits assumed): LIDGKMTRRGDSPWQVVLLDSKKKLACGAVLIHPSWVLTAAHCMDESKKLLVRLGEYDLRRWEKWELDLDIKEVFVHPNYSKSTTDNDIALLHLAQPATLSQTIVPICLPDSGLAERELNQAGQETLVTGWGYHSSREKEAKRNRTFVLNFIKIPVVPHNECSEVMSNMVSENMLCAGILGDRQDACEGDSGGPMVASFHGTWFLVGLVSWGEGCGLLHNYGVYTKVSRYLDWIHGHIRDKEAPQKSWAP
The next data set concerns the target Plasminogen (Homo sapiens, UniProt P00747). Briefly: Inhibitory activity against plasmin.
For data set [5], the target named is Tissue-type plasminogen activator (Homo sapiens, UniProt P00750). Kind of data set: Inhibitory activity against Tissue plasminogen activator.
Tissue-type plasminogen activator, sequence (P00750 whole entry): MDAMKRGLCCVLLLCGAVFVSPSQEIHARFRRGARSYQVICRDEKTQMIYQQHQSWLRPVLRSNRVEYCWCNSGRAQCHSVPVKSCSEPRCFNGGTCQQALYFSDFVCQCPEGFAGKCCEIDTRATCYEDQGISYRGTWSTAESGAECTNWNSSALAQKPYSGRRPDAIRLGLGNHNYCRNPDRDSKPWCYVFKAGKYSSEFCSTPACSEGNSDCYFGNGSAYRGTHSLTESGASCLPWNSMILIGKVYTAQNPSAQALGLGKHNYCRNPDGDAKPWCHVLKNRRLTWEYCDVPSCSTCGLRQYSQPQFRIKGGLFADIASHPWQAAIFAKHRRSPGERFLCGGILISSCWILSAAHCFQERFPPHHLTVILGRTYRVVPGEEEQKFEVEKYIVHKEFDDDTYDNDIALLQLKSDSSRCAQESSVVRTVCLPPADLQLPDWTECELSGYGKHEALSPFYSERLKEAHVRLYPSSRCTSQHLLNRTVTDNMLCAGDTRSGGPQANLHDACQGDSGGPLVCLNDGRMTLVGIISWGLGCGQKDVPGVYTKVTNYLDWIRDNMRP

T1 sequence (P00742 41-179 limits assumed): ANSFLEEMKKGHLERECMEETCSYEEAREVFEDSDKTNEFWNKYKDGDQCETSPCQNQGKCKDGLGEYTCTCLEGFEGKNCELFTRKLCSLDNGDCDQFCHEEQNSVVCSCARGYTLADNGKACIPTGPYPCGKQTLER
T1 sequence (P00742 235-488 limits assumed): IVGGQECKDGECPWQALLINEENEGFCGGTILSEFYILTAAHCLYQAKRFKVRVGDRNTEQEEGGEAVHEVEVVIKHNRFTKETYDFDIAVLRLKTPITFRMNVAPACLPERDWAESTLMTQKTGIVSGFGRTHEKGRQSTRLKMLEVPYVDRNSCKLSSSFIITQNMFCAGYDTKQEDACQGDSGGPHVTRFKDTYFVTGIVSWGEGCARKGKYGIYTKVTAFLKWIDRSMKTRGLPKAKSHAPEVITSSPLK
Plasminogen, sequence (P00747 97-580 limits assumed): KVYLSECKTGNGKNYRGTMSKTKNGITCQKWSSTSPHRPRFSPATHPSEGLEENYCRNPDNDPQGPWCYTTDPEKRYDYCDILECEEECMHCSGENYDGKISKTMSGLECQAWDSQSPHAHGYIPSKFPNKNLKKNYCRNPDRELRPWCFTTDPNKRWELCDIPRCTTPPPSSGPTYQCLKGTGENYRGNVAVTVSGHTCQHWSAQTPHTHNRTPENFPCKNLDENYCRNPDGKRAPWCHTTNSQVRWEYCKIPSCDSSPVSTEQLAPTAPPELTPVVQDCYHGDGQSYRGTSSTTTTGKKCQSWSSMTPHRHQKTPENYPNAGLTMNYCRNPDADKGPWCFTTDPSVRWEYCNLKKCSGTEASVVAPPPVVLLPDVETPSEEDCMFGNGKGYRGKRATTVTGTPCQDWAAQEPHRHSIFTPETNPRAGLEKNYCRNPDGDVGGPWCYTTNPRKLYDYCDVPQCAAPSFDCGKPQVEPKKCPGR
Plasminogen, sequence (P00747 581-810 limits assumed): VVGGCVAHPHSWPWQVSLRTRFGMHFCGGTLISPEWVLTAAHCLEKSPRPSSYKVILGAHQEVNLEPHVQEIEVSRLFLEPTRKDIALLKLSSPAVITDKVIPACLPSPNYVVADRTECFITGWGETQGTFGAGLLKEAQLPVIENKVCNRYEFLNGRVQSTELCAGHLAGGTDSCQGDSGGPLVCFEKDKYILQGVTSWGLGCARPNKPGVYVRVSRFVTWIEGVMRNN

As usually defined, the IC50 is the concentration at which inhibition is half-maximal. The low end stands for higher potency, the high end for lower potency. Regarding `Nc1nccc2ccc(C(=O)N3Cc4ccccc4C[C@H]3C(=O)Nc3ccc(-c4ccccc4S(N)(=O)=O)cc3)cc12`, the IC50 against Coagulation factor X [1] is 2.77 µM; against Prothrombin it was over 10 µM.
Consider `N=C(N)c1cccc(C(=O)N2Cc3ccc(O)cc3C[C@@H]2C(=O)Nc2ccc(-c3ccccc3S(N)(=O)=O)cc2)c1`, for which the IC50 is 1.78 µM against Coagulation factor X [2], over 10 µM against Prothrombin and over 10 µM against Serine protease 1.
In the case of `Nc1[nH]nc2ccc(C(=O)N[C@@H](C(=O)Nc3ccc(-c4ccccc4S(N)(=O)=O)cc3)c3ccccc3)cc12`, the values for the IC50 on Coagulation factor X [2] and against Prothrombin were 3.45 µM and over 10 µM, respectively.
Regarding `N=C(N)c1cccc(C(=O)N[C@H](Cc2ccccc2)C(=O)Nc2ccc(-c3ccccc3S(N)(=O)=O)cc2)c1`, the IC50 on Coagulation factor X [2] is 0.0313 µM; against Prothrombin, over 10 µM; at Serine protease 1, over 10 µM.
As for `N=C(N)c1cccc(C(=O)N[C@H](C(=O)Nc2ccc(-c3ccccc3S(N)(=O)=O)cc2)c2ccccc2)c1`, the half-maximal inhibitory concentration (IC50) on Coagulation factor X [2] was 0.337 µM; on Prothrombin, over 10 µM; on Serine protease 1 it was 5.17 µM.
In the same order, the values of `N=C(N)c1cccc(C(=O)N[C@@H](Cc2ccccc2)C(=O)Nc2ccc(-c3ccccc3S(N)(=O)=O)cc2)c1` are 0.762 µM, over 10 µM and over 10 µM.
Consider `Nc1noc2ccc(C(=O)N[C@@H](C(=O)Nc3ccc(-c4ccccc4S(N)(=O)=O)cc3)c3ccccc3)cc12`, for which the IC50 against Coagulation factor X [1] and on Prothrombin was over 10 µM throughout.
In the case of `N=C(N)c1cccc(C(=O)N2CCC[C@H]2C(=O)Nc2ccc(-c3ccccc3S(N)(=O)=O)cc2)c1`, the IC50 at Coagulation factor X [2], on Prothrombin and against Serine protease 1 was over 10 µM throughout.
Consider `CC(C)[C@@H](NC(=O)c1cccc(C(=N)N)c1)C(=O)Nc1ccc(-c2ccccc2S(N)(=O)=O)cc1`, for which the IC50 against Coagulation factor X [2] was 0.0348 µM; at Prothrombin, over 10 µM; against Serine protease 1 it was over 10 µM.
As for `N=C(N)c1cccc(C(=O)N[C@H](C(=O)Nc2ccc(-c3ccccc3S(N)(=O)=O)cc2)C2CCCCC2)c1`, the figures for the IC50 at Coagulation factor X [2], against Prothrombin and on Serine protease 1 were 0.635 µM, over 10 µM and over 7.93 µM, respectively.
Consider `Nc1[nH]nc2ccc(C(=O)N[C@H](C(=O)Nc3ccc(-c4ccccc4S(N)(=O)=O)cc3)c3ccccc3)cc12`, for which the IC50 at Coagulation factor X [2] and at Prothrombin was 10 µM each time.
Take `N=C(N)c1cccc(C(=O)NCC(=O)Nc2ccc(-c3ccccc3S(N)(=O)=O)cc2)c1`: the IC50 was 0.851 µM against Coagulation factor X [2], over 10 µM against Prothrombin and over 10 µM against Serine protease 1.
On to `N=C(N)c1cccc(C(=O)N[C@@H](CC(=O)OC2CCCCC2)C(=O)Nc2ccc(-c3ccccc3S(N)(=O)=O)cc2)c1`, for which the half-maximal inhibitory concentration (IC50) is 0.055 µM at Coagulation factor X [2], over 10 µM on Prothrombin and 4.81 µM against Serine protease 1.
Regarding `N=C(N)c1cccc(C(=O)N2Cc3ccccc3C[C@@H]2C(=O)Nc2ccc(-c3ccccc3S(N)(=O)=O)cc2)c1`, the IC50 was 0.0187 µM on Coagulation factor X [2], over 10 µM on Prothrombin and 4.39 µM against Serine protease 1.
In the same order, the values of `N=C(N)c1cccc(C(=O)N[C@@H](CCC(=O)OCc2ccccc2)C(=O)Nc2ccc(-c3ccccc3S(N)(=O)=O)cc2)c1` are 0.644 µM, over 10 µM and 5.64 µM.
In the same order, the values of `CC(C)[C@H](NC(=O)c1cccc(C(=N)N)c1)C(=O)Nc1ccc(-c2ccccc2S(N)(=O)=O)cc1` are 0.676 µM, over 10 µM and over 10 µM.
In the same order, the values of `N=C(N)c1cccc(C(=O)N[C@@H](CCC(=O)OC2CCCCC2)C(=O)Nc2ccc(-c3ccccc3S(N)(=O)=O)cc2)c1` are 0.842 µM, over 10 µM and over 10 µM.
In the case of `N=C(N)c1cccc(C(=O)N[C@@H](CCC(=O)O)C(=O)Nc2ccc(-c3ccccc3S(N)(=O)=O)cc2)c1`, the values for the IC50 on Coagulation factor X [2], at Prothrombin and against Serine protease 1 were 1.44 µM, over 10 µM and over 10 µM, respectively.
One may read the bioavailability as dose-corrected exposure relative to a reference, in per cent. Take `N=C(N)c1cccc(C(=O)N[C@@H](C(=O)Nc2ccc(-c3ccccc3S(N)(=O)=O)cc2)c2ccccc2)c1`: in data set [3], the bioavailability is under 5%. In addition, the IC50 was 6.56 µM in data set [4]; 0.0348 µM on Coagulation factor X [2]; 18.1 µM against Plasminogen; over 10 µM at Prothrombin; over 180 µM in data set [5]; 1.77 µM at Serine protease 1.
`N=C(N)c1cccc(C(=O)N2Cc3ccccc3C[C@H]2C(=O)Nc2ccc(-c3ccccc3S(N)(=O)=O)cc2)c1` showed a bioavailability in data set [3] of under 5%. Besides, the IC50 in data set [4] was 73 µM; at Coagulation factor X [2] it was 0.003 µM; against Plasminogen, 77.9 µM; against Prothrombin, over 10 µM; in data set [5], 180 µM; at Serine protease 1, 2.15 µM.
In the case of `N=C(N)c1cccc(C(=O)N2Cc3ccc(O)cc3C[C@H]2C(=O)Nc2ccc(-c3ccccc3S(N)(=O)=O)cc2)c1`, the IC50 on Coagulation factor X [2] is 0.0967 µM; against Prothrombin, over 10 µM; on Serine protease 1, 0.888 µM.
